Results: ChEMBL document CHEMBL1126229, “Enol lactone derivatives as inhibitors of human neutrophil elastase and trypsin-like proteases” (Bioorg Med Chem Lett, 1992)

Assays:
[1] = molecular target: T1, Neutrophil elastase (Homo sapiens) (UniProt P08246); test: Binding constant on human neutrophil elastase was determined at 30 percent and at 10 minutes for maximum inhibition with 0 minutes persistence of inhibition
T1 sequence (whole entry): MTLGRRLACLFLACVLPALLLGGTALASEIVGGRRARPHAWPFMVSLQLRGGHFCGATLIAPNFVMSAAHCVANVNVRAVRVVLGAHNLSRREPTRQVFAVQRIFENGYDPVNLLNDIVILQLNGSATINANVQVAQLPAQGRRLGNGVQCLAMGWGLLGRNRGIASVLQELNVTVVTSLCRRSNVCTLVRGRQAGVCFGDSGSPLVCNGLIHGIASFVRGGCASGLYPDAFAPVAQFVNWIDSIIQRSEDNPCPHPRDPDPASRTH

[2] = molecular target: T1, Neutrophil elastase (Homo sapiens); test: Rate constant of acylation on human neutrophil elastase was determined at 30 percent and at 10 minutes for maximum inhibition with 0 minutes persistence of inhibition
[3] = molecular target: T2, Chymotrypsin-like elastase family member 2A (Sus scrofa) (UniProt P08419); test: Rate constant of acylation on porcine pancreatic elastase was determined at 10 percent and at 73 minutes for maximum inhibition and no enzyme activity was recovered over the 2 h-time
T2 sequence (whole entry): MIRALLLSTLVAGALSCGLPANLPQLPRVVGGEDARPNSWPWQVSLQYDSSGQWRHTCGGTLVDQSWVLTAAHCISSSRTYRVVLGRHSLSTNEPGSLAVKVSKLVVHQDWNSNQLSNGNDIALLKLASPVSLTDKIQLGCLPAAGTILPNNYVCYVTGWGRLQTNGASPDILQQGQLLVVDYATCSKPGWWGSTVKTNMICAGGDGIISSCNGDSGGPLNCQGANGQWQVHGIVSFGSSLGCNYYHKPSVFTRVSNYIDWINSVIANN

[4] = molecular target: T2, Chymotrypsin-like elastase family member 2A (Sus scrofa); test: Binding constant on porcine pancreatic elastase was determined at 10 percent and at 73 minutes for maximum inhibition and no enzyme activity was recovered over the 2 h-time
[5] = molecular target: T2, Chymotrypsin-like elastase family member 2A (Sus scrofa); test: Specificity constant on porcine pancreatic elastase was determined at 10 percent and at 73 minutes for maximum inhibition and no enzyme activity was recovered over the 2 h-time
[6] = molecular target: T1, Neutrophil elastase (Homo sapiens); test: Specificity constant on human neutrophil elastase was determined at 30 percent and at 10 minutes for maximum inhibition with 0 minutes persistence of inhibition
[7] = molecular target: T2, Chymotrypsin-like elastase family member 2A (Sus scrofa); test: Specificity constant on porcine pancreatic elastase was determined at 60 percent and at 30 minutes for maximum inhibition and no enzyme activity was recovered over the 2 h-time
[8] = molecular target: T2, Chymotrypsin-like elastase family member 2A (Sus scrofa); test: Binding constant on porcine pancreatic elastase was determined at 60 percent and at 30 minutes for maximum inhibition and no enzyme activity was recovered over the 2 h-time
[9] = molecular target: T1, Neutrophil elastase (Homo sapiens); test: Specificity constant on human neutrophil elastase was determined at 18 percent and at 26 minutes for maximum inhibition and no enzyme activity was recovered over the 2 h-time
[10] = molecular target: T1, Neutrophil elastase (Homo sapiens); test: Binding constant on human neutrophil elastase was determined at 18 percent and at 26 minutes for maximum inhibition and no enzyme activity was recovered over the 2 h-time
[11] = molecular target: T2, Chymotrypsin-like elastase family member 2A (Sus scrofa); test: Rate constant of acylation on porcine pancreatic elastase was determined at 60 percent and at 30 minutes for maximum inhibition and no enzyme activity was recovered over the 2 h-time
[12] = molecular target: T1, Neutrophil elastase (Homo sapiens); test: Rate constant of acylation on human neutrophil elastase was determined at 18 percent and at 26 minutes for maximum inhibition and no enzyme activity was recovered over the 2 h-time
[13] = molecular target: T1, Neutrophil elastase (Homo sapiens); test: Rate constant of acylation on human neutrophil elastase was determined at 20 percent and at 99 minutes for maximum inhibition and no enzyme activity was recovered over the 2 h-time
[14] = molecular target: T2, Chymotrypsin-like elastase family member 2A (Sus scrofa); test: Specificity constant on porcine pancreatic elastase was determined at 30 percent and at 99 minutes for maximum inhibition and no enzyme activity was recovered over the 2 h-time
Serine protease 1 [15] = molecular target: T3, Serine protease 1 (Homo sapiens, UniProt P07477); test: Rate constant of acylation on trypsin was determined
[16] = molecular target: T1, Neutrophil elastase (Homo sapiens); test: Specificity constant on human neutrophil elastase was determined at 20 percent and at 99 minutes for maximum inhibition and no enzyme activity was recovered over the 2 h-time
[17] = molecular target: Chymotrypsinogen A (Bos taurus) (UniProt P00766); test: Specificity constant on alpha-chymotrypsin was determined
[18] = molecular target: Chymotrypsinogen A (Bos taurus) (UniProt P00766); test: Rate constant of acylation on alpha-chymotrypsin was determined
[19] = molecular target: T2, Chymotrypsin-like elastase family member 2A (Sus scrofa); test: Binding constant on porcine pancreatic elastase was determined at 30 percent and at 99 minutes for maximum inhibition and no enzyme activity was recovered over the 2 h-time
Serine protease 1 [20] = molecular target: T3, Serine protease 1; test: Specificity constant on trypsin was determined
[21] = molecular target: Chymotrypsinogen A (Bos taurus) (UniProt P00766); test: Binding constant on alpha-chymotrypsin was determined
Serine protease 1 [22] = molecular target: T3, Serine protease 1; test: Binding constant on trypsin was determined
[23] = molecular target: T2, Chymotrypsin-like elastase family member 2A (Sus scrofa); test: Rate constant of acylation on porcine pancreatic elastase was determined at 30 percent and at 99 minutes for maximum inhibition and no enzyme activity was recovered over the 2 h-time
[24] = molecular target: T1, Neutrophil elastase (Homo sapiens); test: Binding constant on human neutrophil elastase was determined at 20 percent and at 99 minutes for maximum inhibition and no enzyme activity was recovered over the 2 h-time
Prothrombin [25] = molecular target: T4, Prothrombin (Homo sapiens, UniProt P00734); test: Binding constant on thrombin was determined at 0 percent and at 93 minutes for maximum inhibition and no enzyme activity was recovered over the 2 h-time
Prothrombin [26] = molecular target: T4, Prothrombin; test: Specificity constant on thrombin was determined at 0 percent and at 93 minutes for maximum inhibition and no enzyme activity was recovered over the 2 h-time
[27] = molecular target: T5, Urokinase-type plasminogen activator (Homo sapiens, UniProt P00749); test: Rate constant of acylation on Urokinase-type plasminogen activator […] was determined at 0 percent and at 98 minutes for maximum inhibition and no enzyme activity was recovered over the 2 h-time
Plasminogen [28] = molecular target: T6, Plasminogen (Homo sapiens, UniProt P00747); test: Rate constant of acylation on plasmin was determined at 0 percent and at 95 minutes for maximum inhibition and no enzyme activity was recovered over the 2 h-time
[29] = molecular target: Chymotrypsinogen A (Bos taurus) (UniProt P00766); test: Rate constant of acylation on alpha-chymotrypsin was determined at 15 percent and at 78 minutes for maximum inhibition and no enzyme activity was recovered over the 2 h-time
Plasminogen [30] = molecular target: T6, Plasminogen; test: Specificity constant on plasmin was determined at 0 percent and at 95 minutes for maximum inhibition and no enzyme activity was recovered over the 2 h-time
Prothrombin [31] = molecular target: T4, Prothrombin; test: Rate constant of acylation on thrombin was determined at 0 percent and at 93 minutes for maximum inhibition and no enzyme activity was recovered over the 2 h-time
[32] = molecular target: T5, Urokinase-type plasminogen activator; test: Specificity constant on Urokinase-type plasminogen activator was determined at 0 percent and at 98 minutes for maximum inhibition and no enzyme activity was recovered over the 2 h-time
[33] = molecular target: T5, Urokinase-type plasminogen activator; test: Binding constant on Urokinase-type plasminogen activator was determined at 0 percent and at 98 minutes for maximum inhibition and no enzyme activity was recovered over the 2 h-time
[34] = molecular target: Chymotrypsinogen A (Bos taurus) (UniProt P00766); test: Specificity constant on alpha-chymotrypsin was determined at 15 percent and at 78 minutes for maximum inhibition and no enzyme activity was recovered over the 2 h-time
[35] = molecular target: Chymotrypsinogen A (Bos taurus) (UniProt P00766); test: Binding constant on alpha-chymotrypsin was determined at 15 percent and at 78 minutes for maximum inhibition and no enzyme activity was recovered over the 2 h-time
Plasminogen [36] = molecular target: T6, Plasminogen; test: Binding constant on plasmin was determined at 0 percent and at 95 minutes for maximum inhibition and no enzyme activity was recovered over the 2 h-time
[37] = molecular target: T5, Urokinase-type plasminogen activator
[38] = molecular target: T5, Urokinase-type plasminogen activator; remark: listed apart in the source
Description: Specificity constant on Urokinase-type plasminogen activator was determined at 0 percent and at 91 minutes for maximum inhibition and no enzyme activity was recovered over the 2 h-time

Serine protease 1 [39] = molecular target: T3, Serine protease 1; test: Binding constant on trypsin was determined at 0 percent and at 99 minutes for maximum inhibition and no enzyme activity was recovered over the 2 h-time
Plasminogen [40] = molecular target: T6, Plasminogen
Plasminogen [41] = molecular target: T6, Plasminogen; test: Binding constant on plasmin was determined at 0 percent and at 98 minutes for maximum inhibition and no enzyme activity was recovered over the 2 h-time
[42] = molecular target: Tissue-type plasminogen activator (Homo sapiens) (UniProt P00750); test: Binding constant on Tissue type plasminogen activator was determined at 15 percent and at 90 minutes for maximum inhibition and no enzyme activity was recovered over the 2 h-time
Serine protease 1 [43] = molecular target: T3, Serine protease 1; test: Rate constant of acylation on trypsin was determined at 0 percent and at 99 minutes for maximum inhibition and no enzyme activity was recovered over the 2 h-time
Prothrombin [44] = molecular target: T4, Prothrombin; test: Rate constant of deacylation for thrombin
Prothrombin [45] = molecular target: T4, Prothrombin
Plasminogen [46] = molecular target: T6, Plasminogen; remark: listed apart in the source
Prothrombin [47] = molecular target: T4, Prothrombin; test: Binding constant on thrombin was determined at 15 percent and at 98 minutes for maximum inhibition and no enzyme activity was recovered over the 2 h-time
Prothrombin [48] = molecular target: T4, Prothrombin; remark: listed apart in the source
[49] = molecular target: Tissue-type plasminogen activator (Homo sapiens) (UniProt P00750)
Serine protease 1 [50] = molecular target: T3, Serine protease 1; test: Specificity constant on trypsin was determined at 0 percent and at 99 minutes for maximum inhibition and no enzyme activity was recovered over the 2 h-time

T6 sequence (P00747 97-580 limits assumed): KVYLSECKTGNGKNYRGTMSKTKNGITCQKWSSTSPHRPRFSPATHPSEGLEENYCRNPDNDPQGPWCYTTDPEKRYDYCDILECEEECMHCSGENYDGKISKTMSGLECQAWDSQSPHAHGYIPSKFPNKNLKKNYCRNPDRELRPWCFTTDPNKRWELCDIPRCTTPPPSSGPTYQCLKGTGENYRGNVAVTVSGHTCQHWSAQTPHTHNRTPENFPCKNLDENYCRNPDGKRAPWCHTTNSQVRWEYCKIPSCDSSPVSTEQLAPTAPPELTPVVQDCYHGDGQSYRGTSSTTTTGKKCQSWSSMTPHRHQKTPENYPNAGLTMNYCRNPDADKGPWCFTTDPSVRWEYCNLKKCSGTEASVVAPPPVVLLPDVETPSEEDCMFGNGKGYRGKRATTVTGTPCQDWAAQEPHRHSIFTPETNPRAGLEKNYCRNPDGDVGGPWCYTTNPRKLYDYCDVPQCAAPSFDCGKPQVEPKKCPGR
T6 sequence (P00747 581-810 limits assumed): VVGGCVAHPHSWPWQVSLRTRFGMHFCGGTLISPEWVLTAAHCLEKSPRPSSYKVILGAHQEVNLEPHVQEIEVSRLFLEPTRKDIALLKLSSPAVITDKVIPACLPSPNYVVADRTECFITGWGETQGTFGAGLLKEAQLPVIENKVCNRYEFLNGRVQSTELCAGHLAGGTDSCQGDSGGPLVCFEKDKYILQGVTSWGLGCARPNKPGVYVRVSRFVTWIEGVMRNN
T3 sequence (P07477 whole entry): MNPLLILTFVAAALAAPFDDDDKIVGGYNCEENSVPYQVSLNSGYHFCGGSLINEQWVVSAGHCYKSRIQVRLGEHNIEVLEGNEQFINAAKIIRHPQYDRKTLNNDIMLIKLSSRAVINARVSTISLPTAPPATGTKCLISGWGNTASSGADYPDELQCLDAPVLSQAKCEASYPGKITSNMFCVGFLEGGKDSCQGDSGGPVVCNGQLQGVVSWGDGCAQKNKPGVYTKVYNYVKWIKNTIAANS
Tissue-type plasminogen activator (Homo sapiens), sequence (P00750 36-562 limits assumed): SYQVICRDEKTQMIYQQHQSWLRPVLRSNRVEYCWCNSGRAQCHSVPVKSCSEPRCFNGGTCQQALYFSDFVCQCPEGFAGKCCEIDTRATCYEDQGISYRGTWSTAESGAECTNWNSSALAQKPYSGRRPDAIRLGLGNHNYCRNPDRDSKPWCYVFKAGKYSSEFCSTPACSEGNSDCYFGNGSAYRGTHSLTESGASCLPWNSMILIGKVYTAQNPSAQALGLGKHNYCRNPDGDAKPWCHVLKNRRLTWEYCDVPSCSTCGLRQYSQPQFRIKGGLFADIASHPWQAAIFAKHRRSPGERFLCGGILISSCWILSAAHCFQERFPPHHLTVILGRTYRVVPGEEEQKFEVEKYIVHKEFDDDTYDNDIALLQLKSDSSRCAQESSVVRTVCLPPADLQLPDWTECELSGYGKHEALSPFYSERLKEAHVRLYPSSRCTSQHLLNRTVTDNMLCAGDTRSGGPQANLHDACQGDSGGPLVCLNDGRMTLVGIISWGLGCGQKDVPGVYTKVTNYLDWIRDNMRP

Compound: C=C1CC(C)CC(=O)O1 (stereo not given)
- Ks/i [1]: 22.7 µM
- ka [2]: 0.6 min⁻¹
- ka [3]: 4.47 min⁻¹
- Ks/i [4]: 393 µM
- ka/Ki [5]: 167 M⁻¹ s⁻¹
- ka/Ki [6]: 500 M⁻¹ s⁻¹

Compound: CC1(C)CC(=O)O/C(=C/Br)C1
- ka/Ki [7]: 33.3 M⁻¹ s⁻¹
- Ks/i [8]: 284 µM
- ka/Ki [9]: 667 M⁻¹ s⁻¹
- Ks/i [10]: 43.5 µM
- ka [11]: 0.43 min⁻¹
- ka [12]: 1.8 min⁻¹

Compound: CC(C)C1CC/C(=C/Br)OC1=O (stereo not given)
- ka [13]: 0.18 min⁻¹
- ka/Ki [14]: 83.3 M⁻¹ s⁻¹
- ka (Serine protease 1 [15]): 2.4 min⁻¹
- ka/Ki [16]: 37500 M⁻¹ s⁻¹
- ka/Ki [17]: 11700 M⁻¹ s⁻¹
- ka [18]: 1.6 min⁻¹
- Ks/i [19]: 58.8 µM
- ka/Ki (Serine protease 1 [20]): 667 M⁻¹ s⁻¹
- Ks/i [21]: 2.3 µM
- Ks/i (Serine protease 1 [22]): 65 µM
- ka [23]: 0.28 min⁻¹
- Ks/i [24]: 0.08 µM

Compound: N=C(N)Nc1ccc(C2CC/C(=C\I)OC2=O)cc1 (stereo not given)
- Ks/i (Prothrombin [25]): 0.93 µM
- ka/Ki (Prothrombin [26]): 233000 M⁻¹ s⁻¹
- ka [27]: 18.6 min⁻¹
- ka (Plasminogen [28]): 13.6 min⁻¹
- ka [29]: 7.22 min⁻¹
- ka/Ki (Plasminogen [30]): 7.55e+06 M⁻¹ s⁻¹
- ka (Prothrombin [31]): 12.9 min⁻¹
- ka/Ki [32]: 1.95e+06 M⁻¹ s⁻¹
- Ks/i [33]: 0.16 µM
- ka/Ki [34]: 50000 M⁻¹ s⁻¹
- Ks/i [35]: 2.4 µM
- Ks/i (Plasminogen [36]): 0.03 µM

Compound: N=C(N)NCc1ccc(C2CC/C(=C\I)OC2=O)cc1 (stereo not given)
- ka [37]: 7.56 min⁻¹
- ka/Ki [38]: 1.26e+07 M⁻¹ s⁻¹
- Ks/i (Serine protease 1 [39]): 0.08 µM
- ka/Ki (Plasminogen [40]): 150000 M⁻¹ s⁻¹
- Ks/i (Plasminogen [41]): 1.19 µM
- Ks/i [42]: 0.12 µM
- ka (Serine protease 1 [43]): 18.4 min⁻¹
- Kd (Prothrombin [44]): 0.000217 s⁻¹
- ka (Prothrombin [45]): 27.2 min⁻¹
- ka (Plasminogen [46]): 10.2 min⁻¹
- Ks/i (Prothrombin [47]): 14.8 µM
- ka/Ki (Prothrombin [48]): 33300 M⁻¹ s⁻¹
- ka [49]: Not measurable
- ka/Ki (Serine protease 1 [50]): 3.83e+06 M⁻¹ s⁻¹
